The text below walks through data of patent US20150359913A1, “TETRAZINES/TRANS-CYCLOOCTENES IN SOLID PHASE SYNTHESIS OF LABELED PEPTIDES” (MEMORIAL SLOAN-KETTERING CANCER CENTER, priority 2013, published 2015).

The target in data set [1] is A33 antigen (human) (UniProt Q99795). Kind of data set: immunoreactivity assay of the radiolabelled antibody (cells not given).
Data set [2] deals with subcutaneous SW1222 xenografts. Kind of data set: pre-targeted biodistribution: A33-TCO, 24 h later ^64Cu-Tz-Bn-NOTA. Format: in vivo, mice. The settings on record: for Biodistribution: Blood / Biodistribution: Bone / Biodistribution: Feces / Biodistribution: Heart / Biodistribution: Kidney / Biodistribution: Large intestine / Biodistribution: Liver / Biodistribution: Lung / Biodistribution: Muscle / Biodistribution: Skin / Biodistribution: Small intestine / Biodistribution: Spleen / Biodistribution: Stomach / Biodistribution: Tumor: A33-TCO (100 μg) 24 h before ^64Cu-Tz-Bn-NOTA; for uptake in all other tissues (not tumor, feces): generally. How it is done: Values are represented as % ID/g±SD. Mice (n=4) bearing subcutaneous SW1222 xenografts were administered huA33-TCO (100 μg) via tail vein injection. After 24 hours the same mice were administered ^64Cu-Tz-Bn-NOTA (0.55-0.75 MBq [15-20 μCi] via tail vein injection (t=0).
Following the synthesis and characterization of the components of the system, in vivo pre-targeted biodistribution and PET imaging experiments were performed. For the pre-targeted biodistribution experiments, mice bearing SW1222 xenografts were administered huA33-TCO (100 μg) via tail vein injection. After a 24 h interval, the mice were administered ^64Cu-Tz-NOTA via tail vein injection. The data reveal rapid accumulation and retention of activity in the tumor, with 4.1±0.3% ID/g at 1 h p.i and 4.2±0.3% ID/g at 12 h p.i. (Table 1). The compound is excreted through the feces, with high levels of activity at 1 h p.i. dropping to 0.9±0.1% ID/g at 12 h, and the amount of uptake in other tissues remains very low, generally less than 0.3% ID/g.
For the pre-targeted biodistribution experiments, mice bearing subcutaneous SW1222 xenografts were administered A33-TCO ([…]) via tail vein injection. […] The data reveal rapid accumulation and retention of radioactivity in the tumor, with 4.1±0.3 percent injected dose per gram (% ID/g) at 1 h after injection, 4.2±0.8% ID/g at 12 h, and 4.0±0.9% ID/g at 24 h (Table 1). The compound is excreted through the feces, with high levels of activity at 1 h after injection dropping to 2.5±0.1% ID/g at 12 h. The amount of uptake in all other tissues remains low, generally less than 1% ID/g.
The specificity of antibodies have made immunoconjugates promising vectors for the delivery of radioisotopes to cancer cells; however, their long pharmacologic half-lives necessitate the use of radioisotopes with long physical half-lives, a combination that leads to high radiation doses to patients. Therefore, the development of targeting modalities that harness the advantages of antibodies without their pharmacokinetic limitations is desirable. To this end, we report the development of a methodology for pre-targeted PET imaging based on the bioorthogonal Diels-Alder click reaction between tetrazine and transcyclooctene. A proof-of-concept system based on the A33 antibody, SW1222 colorectal cancer cells, and ^64Cu was used. The huA33 antibody was covalently modified with transcyclooctene, and a NOTA-modified tetrazine was synthesized and radiolabeled with ^64Cu. Pre-targeted in vivo biodistribution and PET imaging experiments were performed with athymic nude mice bearing A33 antigen-expressing, SW1222 colorectal cancer xenografts. The huA33 antibody was modified with transcyclooctene to produce a conjugate with high immunoreactivity, and the ^64Cu-NOTA-labeled tetrazine ligand was synthesized with greater than 99% purity and a specific activity of 9-10 MBq/mg. For in vivo experiments, mice bearing SW1222 xenografts were injected with transcyclooctene-modified A33; after allowing 24 h for accumulation of the antibody in the tumor, the mice were injected with 64Cu-NOTA-labeled tetrazine for PET imaging and biodistribution experiments. At 12 h after injection, the retention of uptake in the tumor ([…] percent injected dose per gram), coupled with the fecal excretion of excess radioligand, produced images with high tumor-to-background ratios. […] Conclusion: The high quality of the images produced by this pretargeting approach, combined with the ability of the methodology to dramatically reduce non-target radiation doses to patients, marks this system as a strong candidate for clinical translation.

Data set [3] can be described thus: in vitro stability of the radioligand in human serum at 37° C., HPLC. The class given is in vitro ADME. As for the experimental part: (§1) The stability of the radioligand was assayed in vitro by incubation in human serum at 37° C. and subsequent HPLC analysis. The ^64Cu-Tz-Bn-NOTA remained relatively stable after 1 h, with 93.0%±2.5% intact. […] In addition, in vivo stability experiments were performed, and these produced similar results, although some acceleration in decomposition can be noted: 77%±3% of the ^64Cu-Tz-Bn-NOTA is intact in the blood after 60 min, followed by 47%±2% after 2 h and 22%±3% after 6 h. Although greater stability may be preferable, the speed of the cycloaddition reaction and the rapid pharmacokinetics of the radioligand led us to believe it unlikely that poor serum stability at later time points would limit the system.

The nature of data set [4]: in vivo stability of the radioligand in the blood. How it is done: as §1
Data set [5] has as its target A33 antigen (human) (UniProt Q99795). Kind of data set: immunoreactivity of the TCO-modified antibody (assay not described in this sentence).
For data set [6] the target is unchanged. Kind of data set: immunoreactivity assay with A33 antigen-expressing SW1222 human colorectal cancer cells, radiolabelled antibody.

UniProt Q99795, sequence (Q99795 22-319): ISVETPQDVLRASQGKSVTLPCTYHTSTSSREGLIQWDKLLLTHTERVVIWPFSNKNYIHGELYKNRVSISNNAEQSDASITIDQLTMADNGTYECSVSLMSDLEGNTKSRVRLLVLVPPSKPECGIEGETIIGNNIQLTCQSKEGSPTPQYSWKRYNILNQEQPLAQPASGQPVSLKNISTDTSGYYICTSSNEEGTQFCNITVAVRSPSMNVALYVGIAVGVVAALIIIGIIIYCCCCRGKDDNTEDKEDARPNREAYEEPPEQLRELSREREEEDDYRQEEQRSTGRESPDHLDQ

With ^89Zr-DFO-A33 (antibody), the immunoreactivity with A33 antigen (human) [1] was 92%.
Consider `O=C([O-])CN1CCN(CC(=O)[O-])CC(Cc2ccc(NC(=O)CCCC(=O)NCc3ccc(-c4nncnn4)cc3)cc2)N(CC(=O)[O-])CC1.[64Cu+2]` (stereo not drawn) [^64Cu-Tz-Bn-NOTA], for which, in data set [2] (1 h), the “Biodistribution: Blood” value is recorded as 3.5 ± 0.6 % ID/g, the “Biodistribution: Bone” value is listed as 0.3 ± 0.2 % ID/g, the “Biodistribution: Feces” value came out at 11.9 ± 4.4 % ID/g and the “Biodistribution: Heart” value is recorded as 1.1 ± 0.2 % ID/g. In addition, in data set [2] (1 h), the “Biodistribution: Kidney” value is 1.3 ± 0.1 % ID/g, the “Biodistribution: Large intestine” value is reported as 0.5 ± 0.0 % ID/g, the “Biodistribution: Liver” value is given as 2.2 ± 0.3 % ID/g and the “Biodistribution: Lung” value came to 1.6 ± 0.5 % ID/g. In addition, in data set [2] (1 h), the “Biodistribution: Muscle” value amounted to 0.2 ± 0.0 % ID/g, the “Biodistribution: Skin” value was found to be 0.3 ± 0.1 % ID/g, the “Biodistribution: Small intestine” value worked out at 0.0 ± 0.0 % ID/g and the “Biodistribution: Spleen” value is 0.6 ± 0.1 % ID/g. Besides, in data set [2] (1 h), the “Biodistribution: Stomach” value is listed as 0.5 ± 0.1 % ID/g and the “Biodistribution: Tumor” value is reported as 4.1±0.3 % ID/g. The “Biodistribution: Tumor” value in data set [2] (1 h, listed as 64Cu-Tz-NOTA) worked out at 4.1±0.3 % ID/g. Moreover, in data set [2] (4 h), the “Biodistribution: Blood” value was found to be 2.6 ± 0.8 % ID/g, the “Biodistribution: Bone” value is given as 0.3 ± 0.2 % ID/g, the “Biodistribution: Feces” value was found to be 8.8 ± 3.4 % ID/g and the “Biodistribution: Heart” value is given as 0.9 ± 0.3 % ID/g. In addition, in data set [2] (4 h), the “Biodistribution: Kidney” value is 0.9 ± 0.3 % ID/g, the “Biodistribution: Large intestine” value was 3.1 ± 1.1 % ID/g, the “Biodistribution: Liver” value is reported as 1.3 ± 0.3 % ID/g and the “Biodistribution: Lung” value is recorded as 1.6 ± 0.4 % ID/g. In data set [2] (4 h), the “Biodistribution: Muscle” value is reported as 0.1 ± 0.0 % ID/g, the “Biodistribution: Skin” value is on record as 0.3 ± 0.1 % ID/g, the “Biodistribution: Small intestine” value worked out at 0.4 ± 0.1 % ID/g and the “Biodistribution: Spleen” value amounted to 0.5 ± 0.2 % ID/g. Besides, in data set [2] (4 h), the “Biodistribution: Stomach” value was determined as 0.3 ± 0.1 % ID/g and the “Biodistribution: Tumor” value turned out to be 4.1 ± 0.6 % ID/g. In addition, in data set [2] (12 h), the “Biodistribution: Blood” value was 2.3 ± 0.4 % ID/g, the “Biodistribution: Bone” value was 0.4 ± 0.1 % ID/g, the “Biodistribution: Feces” value is recorded as 2.5±0.1 % ID/g and the “Biodistribution: Heart” value came to 0.9 ± 0.1 % ID/g. In addition, in data set [2] (12 h), the “Biodistribution: Kidney” value is reported as 0.9 ± 0.3 % ID/g, the “Biodistribution: Large intestine” value stood at 2.3 ± 1.0 % ID/g, the “Biodistribution: Liver” value amounted to 0.9 ± 0.2 % ID/g and the “Biodistribution: Lung” value is 1.1 ± 0.4 % ID/g. In addition, in data set [2] (12 h), the “Biodistribution: Muscle” value is 0.2 ± 0.0 % ID/g, the “Biodistribution: Skin” value is listed as 0.4 ± 0.1 % ID/g, the “Biodistribution: Small intestine” value was 0.8 ± 0.5 % ID/g and the “Biodistribution: Spleen” value came to 0.6 ± 0.3 % ID/g. In data set [2] (12 h), the “Biodistribution: Stomach” value stood at 0.5 ± 0.6 % ID/g and the “Biodistribution: Tumor” value was 4.2±0.8 % ID/g. Also, the “Biodistribution: Tumor” value in data set [2] (12 h, listed as 64Cu-NOTA-labeled tetrazine) worked out at 4.1±0.3 % ID/g. In addition, in data set [2] (12 h, listed as 64Cu-Tz-NOTA), the “Biodistribution: Feces” value amounted to 0.9±0.1 % ID/g and the “Biodistribution: Tumor” value is recorded as 4.2±0.3 % ID/g. The “tumor-to-muscle activity concentration ratio” value in data set [2] (12 h, pre-targeting, A33-TCO 24 h before radioligand) came to 26.6±6.6. In addition, in data set [2] (24 h), the “Biodistribution: Blood” value worked out at 2.1 ± 0.5 % ID/g, the “Biodistribution: Bone” value is recorded as 0.3 ± 0.1 % ID/g, the “Biodistribution: Feces” value is recorded as 1.4 ± 0.5 % ID/g and the “Biodistribution: Heart” value is reported as 0.8 ± 0.2 % ID/g. Also, in data set [2] (24 h), the “Biodistribution: Kidney” value was found to be 0.7 ± 0.2 % ID/g, the “Biodistribution: Large intestine” value was 1.1 ± 0.4 % ID/g, the “Biodistribution: Liver” value amounted to 1.1 ± 0.2 % ID/g and the “Biodistribution: Lung” value is 1.0 ± 0.3 % ID/g. Also, in data set [2] (24 h), the “Biodistribution: Muscle” value is 0.1 ± 0.0 % ID/g, the “Biodistribution: Skin” value is 0.5 ± 0.2 % ID/g, the “Biodistribution: Small intestine” value is on record as 0.3 ± 0.0 % ID/g and the “Biodistribution: Spleen” value was determined as 0.4 ± 0.1 % ID/g. Further, in data set [2] (24 h), the “Biodistribution: Stomach” value was 0.2 ± 0.0 % ID/g and the “Biodistribution: Tumor” value is given as 4.0±0.9 % ID/g. Also, in data set [2] (pre-targeting), the “uptake in all other tissues (not tumor, feces)” value is “less than 1 % ID/g”. In data set [2] (pre-targeting, listed as 64Cu-Tz-NOTA), the “uptake in all other tissues (not tumor, feces)” value is “less than 0.3 % ID/g”. Moreover, in data set [3] (1 h), the radioligand intact is 93.0%±2.5%. In addition, in data set [3] (12 h), the radioligand intact is 31.6%±6.1%. In addition, the “radioligand intact in the blood” value in data set [4] (60 min) is recorded as 77%±3%. Further, the “radioligand intact in the blood” value in data set [4] (2 h) is on record as 47%±2%. The “radioligand intact in the blood” value in data set [4] (6 h) is reported as 22%±3%.
On to “TCO-modified huA33 (huA33-TCO) (antibody)”, for which the immunoreactivity in the data set with A33 antigen (human) [5] was over 95%.
With “^64Cu-NOTA-A33 (A33-TCO reacted with ^64Cu-Tz-Bn-NOTA) (antibody)”, the immunoreactivity with A33 antigen (human) [1] was over 95%; in the data set with A33 antigen (human) [6] it was 95.6%.
